# Results published in US8633218B2, “8-azabicyclo[3.2.1]oct-2-ene derivatives and their use as monoamine neurotransmitter re-uptake inhibitors” (Aniona APS, priority 2008, dated 2014).
# Structures can show the parent of a compound that is named as a salt.
# Key:
# Assay type in all cases: biochemical
# [1] = test system: dopamine (DA) reuptake in synaptosomes; test: Inhibition of 3H-DA reuptake in synaptosomes; settings: read-out: DA-uptake IC50
# Description: (§1) Compounds were tested for their ability to inhibit the reuptake of the monoamine neurotransmitters dopamine (DA) noradrenaline (NA) and serotonine (5-HT) in synaptosomes as described in WO 97/16451 (NeuroSearch A/S).
# (§2) The test values are given as IC50 (the concentration (μM) of the test substance which inhibits the specific binding of ^3H-DA, ^3H-NA, or ^3H-5-HT by 50%).
# [2] = test system: serotonine (5-HT) reuptake in synaptosomes; test: Inhibition of 3H-5-HT reuptake in synaptosomes; settings: read-out: 5-HT-uptake IC50
# Description: as §1, §2
# [3] = test system: noradrenaline (NA) reuptake in synaptosomes; test: Inhibition of 3H-NA reuptake in synaptosomes; settings: read-out: NA-uptake IC50
# Description: as §1, §2
smiles,measurement,setting,value
"Oc1ccc2sc(C3=CC4CCC(C3)N4)cc2c1 (stereo not drawn) [Compound 3.1, 2-(8-Aza-bicyclo[3.2.1]oct-2-en-3-yl)-benzo[b]thiophen-5-ol hydrochloric acid salt]",IC50,[1],94 nM
same,IC50,[2],0.37 nM
same,IC50,[3],4.3 nM
"COc1ccc2sc(C3=CC4CCC(C3)N4)cc2c1 (stereo not drawn) [Compound 2.1, 3-(5-Methoxy-benzo[b]thiophen-2-yl)-8-aza-bicyclo[3.2.1]oct-2-ene hydrochloric acid salt]",IC50,[1],740 nM
same,IC50,[2],2.5 nM
same,IC50,[3],57 nM
